For this assay, the system named is A2780. Put plainly: Cytotoxicity against human A2780 cells. The assay is classed as functional, cell-based.

*1 amine or outer side, *2 acyl side, *3 side chain or, on linkers, in order; H or OH if unused. Where a SMILES comes first, the peptide text is derived from it. Bridges are numbered along the chain shown (N, C = ends). Roman numbers before positions name the chains, in order. [ ]: non-standard residue; d: D form. Actinocin(1to9) = Cc1c2oc3c(C)ccc(C(=O)[*:2])c3nc-2c(C(=O)[*:1])c(N)c1=O; NMeV = CN[C@H](C(=O)O)C(C)C; Sar = CNCC(=O)O

Consider four compounds from ChEMBL document CHEMBL1141804, “Cytotoxic sesquiterpene lactones from Vernonia pachyclada from the Madagascar rainforest” (J Nat Prod, 2005).

In general, IC50 refers to the concentration at which inhibition is half-maximal. Low values mean greater potency, high ones weaker potency.

Consider `C=C(C)C(=O)O[C@H]1C[C@H](C)[C@@H](OC(C)=O)CC[C@@]2(C)O[C@@H]2[C@H]2OC(=O)C(COC(C)=O)=C12` [GLAUCOLIDE K], for which the IC50 came to 5.8 µM.
Next, `C=C(C)C(=O)O[C@H]1C[C@H](C)[C@@H](OC(C)=O)CC[C@@](C)(O)/C=C2/OC(=O)C(COC(C)=O)=C21` [GLAUCOLIDE M]: 3.3 µM; `C=C(C)C(=O)O[C@H]1C[C@H](C)[C@@H](OC(C)=O)CC[C@@]2(C)O[C@@H]2[C@H]2OC(=O)C(CO)=C12` [GLAUCOLIDE L]: 24.5 µM; `Cc1c2oc3c(C)ccc(C(=O)N[C@@H]4C(=O)N[C@H](C(C)C)C(=O)N5CCC[C@H]5C(=O)N(C)CC(=O)N(C)[C@@H](C(C)C)C(=O)O[C@@H]4C)c3nc-2c(C(=O)N[C@@H]2C(=O)N[C@H](C(C)C)C(=O)N3CCC[C@H]3C(=O)N(C)CC(=O)N(C)[C@@H](C(C)C)C(=O)O[C@@H]2C)c(N)c1=O` [DACTINOMYCIN] (I: T[dV]P[Sar][NMeV] / II: T[dV]P[Sar][NMeV]; ester I:1-I:C, II:1-II:C; linker I:N-II:N via Actinocin(1to9)): 0.0008 µM.
